Measurements from ChEMBL document CHEMBL1201862, “PubChem BioAssay data set” (2004).
Activity calls are given as the source filed them.

Experiments:
[1] = molecular target: T1, Rac GTPase-activating protein 1 (Homo sapiens, UniProt Q9H0H5); experiment: MgcRacGAP GTPase-activating activity inhibitors, confirmation, biochemical, ADP Hunter fluorescence, primary and confirmatory (AID 624330); format: functional
T1 sequence (Q9H0H5 whole entry): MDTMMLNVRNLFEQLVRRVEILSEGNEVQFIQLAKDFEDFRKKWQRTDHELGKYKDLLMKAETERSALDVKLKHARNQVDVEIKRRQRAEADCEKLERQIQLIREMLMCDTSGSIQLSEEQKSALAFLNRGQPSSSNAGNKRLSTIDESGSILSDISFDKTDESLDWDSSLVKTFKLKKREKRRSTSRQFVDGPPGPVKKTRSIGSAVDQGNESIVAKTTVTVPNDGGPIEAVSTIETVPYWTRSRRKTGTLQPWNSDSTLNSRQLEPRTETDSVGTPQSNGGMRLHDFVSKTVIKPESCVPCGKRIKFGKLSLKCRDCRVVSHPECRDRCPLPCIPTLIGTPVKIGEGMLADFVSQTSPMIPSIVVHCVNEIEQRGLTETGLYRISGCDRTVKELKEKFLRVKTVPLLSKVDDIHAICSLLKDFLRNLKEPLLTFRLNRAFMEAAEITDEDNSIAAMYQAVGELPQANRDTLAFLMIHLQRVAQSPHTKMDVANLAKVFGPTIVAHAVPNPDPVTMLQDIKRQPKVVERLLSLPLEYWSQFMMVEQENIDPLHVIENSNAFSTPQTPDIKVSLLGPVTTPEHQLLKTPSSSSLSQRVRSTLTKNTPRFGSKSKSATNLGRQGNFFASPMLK

[2] = THP-1 cell cytotoxicity, dose response, cytotoxicity control for Vif-APOBEC3G degradation inhibitor project, THP-1 cells (AID 1117359); format: functional; details: Human immunodeficiency virus 1, THP-1
Aminopeptidase N = molecular target: T2, Aminopeptidase N (Plasmodium falciparum FcB1/Columbia, UniProt O96935); experiment: P. falciparum M1AAP inhibitors, biochemical, fluorogenic H-Leu-NHMec substrate, 1536-well (AID 1445); parameters: species or system Plasmodium falciparum 3D7, 3D7
T2 sequence (O96935 whole entry): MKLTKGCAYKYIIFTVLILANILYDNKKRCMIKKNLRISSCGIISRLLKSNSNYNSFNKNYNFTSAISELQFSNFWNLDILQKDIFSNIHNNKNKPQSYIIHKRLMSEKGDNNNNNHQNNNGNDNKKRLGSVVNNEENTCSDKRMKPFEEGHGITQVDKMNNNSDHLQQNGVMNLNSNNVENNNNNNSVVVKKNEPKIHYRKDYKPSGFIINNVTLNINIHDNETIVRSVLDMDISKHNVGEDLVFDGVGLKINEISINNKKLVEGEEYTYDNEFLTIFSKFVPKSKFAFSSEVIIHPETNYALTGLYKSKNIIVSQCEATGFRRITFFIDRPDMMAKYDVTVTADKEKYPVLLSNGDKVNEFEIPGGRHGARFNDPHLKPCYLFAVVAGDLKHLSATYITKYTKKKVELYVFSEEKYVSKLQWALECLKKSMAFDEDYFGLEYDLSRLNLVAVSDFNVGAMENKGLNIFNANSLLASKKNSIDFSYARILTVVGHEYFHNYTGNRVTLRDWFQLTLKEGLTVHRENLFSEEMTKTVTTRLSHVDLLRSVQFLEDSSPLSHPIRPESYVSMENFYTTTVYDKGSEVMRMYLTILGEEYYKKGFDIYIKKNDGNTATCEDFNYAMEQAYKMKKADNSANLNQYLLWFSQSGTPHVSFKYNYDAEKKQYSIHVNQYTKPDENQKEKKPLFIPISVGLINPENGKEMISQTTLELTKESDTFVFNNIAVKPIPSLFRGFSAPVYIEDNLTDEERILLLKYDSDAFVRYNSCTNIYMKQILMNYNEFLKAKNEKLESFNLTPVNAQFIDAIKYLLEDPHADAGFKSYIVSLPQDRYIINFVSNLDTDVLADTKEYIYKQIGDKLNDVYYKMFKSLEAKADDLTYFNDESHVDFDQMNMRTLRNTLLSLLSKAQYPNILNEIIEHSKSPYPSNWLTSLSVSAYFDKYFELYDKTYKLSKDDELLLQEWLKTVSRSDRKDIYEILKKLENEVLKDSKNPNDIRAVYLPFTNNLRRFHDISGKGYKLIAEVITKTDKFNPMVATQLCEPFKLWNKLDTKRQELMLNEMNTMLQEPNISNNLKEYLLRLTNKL

Leucine aminopeptidase = molecular target: T3, Leucine aminopeptidase (Plasmodium falciparum 3D7, UniProt Q8IL11); experiment: P. falciparum M17LAP inhibitors, primary screen, biochemical, fluorogenic H-Leu-NHMec substrate, 1536-well (AID 1619); format: functional
T3 sequence (Q8IL11 whole entry): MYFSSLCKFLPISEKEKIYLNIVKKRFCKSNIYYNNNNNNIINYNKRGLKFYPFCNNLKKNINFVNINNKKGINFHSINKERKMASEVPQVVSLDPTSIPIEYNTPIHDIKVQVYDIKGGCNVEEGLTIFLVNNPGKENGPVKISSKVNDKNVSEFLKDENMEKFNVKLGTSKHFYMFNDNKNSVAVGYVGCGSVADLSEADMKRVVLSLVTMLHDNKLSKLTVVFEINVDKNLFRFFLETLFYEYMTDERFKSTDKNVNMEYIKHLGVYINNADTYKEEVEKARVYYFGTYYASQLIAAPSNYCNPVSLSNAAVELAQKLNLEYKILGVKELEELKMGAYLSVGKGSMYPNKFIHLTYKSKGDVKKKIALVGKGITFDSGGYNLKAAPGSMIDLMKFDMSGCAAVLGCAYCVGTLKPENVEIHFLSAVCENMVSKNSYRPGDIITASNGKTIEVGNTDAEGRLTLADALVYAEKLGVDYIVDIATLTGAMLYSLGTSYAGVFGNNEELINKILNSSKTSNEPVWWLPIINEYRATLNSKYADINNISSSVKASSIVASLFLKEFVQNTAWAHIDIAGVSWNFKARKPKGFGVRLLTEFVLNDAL

[3] = molecular target: T4, Mannose-6-phosphate isomerase (Homo sapiens, UniProt P34949); experiment: human PMI inhibitors, high substrate, primary screen, biochemical, fluorescence intensity, high mannose 6-phosphate (AID 1220)
T4 sequence (P34949 whole entry): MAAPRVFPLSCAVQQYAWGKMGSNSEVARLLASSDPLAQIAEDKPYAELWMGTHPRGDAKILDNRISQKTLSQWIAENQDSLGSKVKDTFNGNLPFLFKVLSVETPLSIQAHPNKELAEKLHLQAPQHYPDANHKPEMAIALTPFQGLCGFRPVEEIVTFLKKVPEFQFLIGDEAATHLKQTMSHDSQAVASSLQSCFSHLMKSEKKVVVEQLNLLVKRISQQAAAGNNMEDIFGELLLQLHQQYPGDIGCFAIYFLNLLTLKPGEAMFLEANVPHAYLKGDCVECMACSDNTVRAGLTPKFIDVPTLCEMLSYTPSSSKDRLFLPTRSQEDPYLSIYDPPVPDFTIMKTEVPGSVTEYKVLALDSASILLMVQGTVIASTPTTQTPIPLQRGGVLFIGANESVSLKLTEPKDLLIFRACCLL

[4] = inhibitors of Vif binding to APOBEC3G peptide, primary screen, biochemical, TR-FRET, GST-Vif 1-94, biotin-A3G peptide, dose response retest (AID 1117319); format: functional;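 also: TR-FRET signal of purified GST-Vif binding a biotinylated A3G peptide; inhibitors lower the FRET signal by blocking Vif and A3G binding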
[5] = microbe, parasite or virus in culture; format: functional; details: Mycobacterium tuberculosis
[6] = THP-1 cell cytotoxicity, dose response, cytotoxicity control for non-replicating M. tuberculosis project (AID 489025); format: functional
[7] = Vero E6 cell cytotoxicity, dose response, cytotoxicity control for non-replicating M. tuberculosis project, secondary assay (AID 492998); format: functional, VeroE6; details: Vero C1008
cells = format: functional
[8] = molecular target: Peroxisome proliferator-activated receptor gamma/Nuclear receptor coactivator 1 (Homo sapiens, UniProt P37231); experiment: TR-FRET dose response biochemical High Throughput Screening assay for agonists of the steroid receptor coactivator 1 (SRC-1) recruitment by the peroxisome proliferator-activated receptor gamma (PPAR gamma): non-selective agonists. [Related pubchem assays (depositor defined):AID1300, AID1808, AID504735, AID631]; format: protein assay
Peroxisome proliferator-activated receptor gamma/Nuclear receptor coactivator 1, sequence (P37231 whole entry): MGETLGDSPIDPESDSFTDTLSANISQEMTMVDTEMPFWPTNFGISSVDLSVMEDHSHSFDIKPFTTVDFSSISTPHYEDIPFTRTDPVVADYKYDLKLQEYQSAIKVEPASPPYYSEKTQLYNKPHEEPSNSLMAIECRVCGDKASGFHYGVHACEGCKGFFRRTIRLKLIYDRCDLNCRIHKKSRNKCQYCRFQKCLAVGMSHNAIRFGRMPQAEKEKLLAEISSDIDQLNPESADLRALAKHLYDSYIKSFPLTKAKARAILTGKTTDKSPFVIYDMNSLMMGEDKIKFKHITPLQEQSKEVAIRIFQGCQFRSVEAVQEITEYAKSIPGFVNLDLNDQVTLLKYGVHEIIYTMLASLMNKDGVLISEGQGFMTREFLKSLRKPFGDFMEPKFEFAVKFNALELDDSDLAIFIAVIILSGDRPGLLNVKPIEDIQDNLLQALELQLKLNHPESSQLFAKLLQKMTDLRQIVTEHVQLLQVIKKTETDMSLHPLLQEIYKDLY
Peroxisome proliferator-activated receptor gamma/Nuclear receptor coactivator 1, sequence (Q15788 whole entry, further chain): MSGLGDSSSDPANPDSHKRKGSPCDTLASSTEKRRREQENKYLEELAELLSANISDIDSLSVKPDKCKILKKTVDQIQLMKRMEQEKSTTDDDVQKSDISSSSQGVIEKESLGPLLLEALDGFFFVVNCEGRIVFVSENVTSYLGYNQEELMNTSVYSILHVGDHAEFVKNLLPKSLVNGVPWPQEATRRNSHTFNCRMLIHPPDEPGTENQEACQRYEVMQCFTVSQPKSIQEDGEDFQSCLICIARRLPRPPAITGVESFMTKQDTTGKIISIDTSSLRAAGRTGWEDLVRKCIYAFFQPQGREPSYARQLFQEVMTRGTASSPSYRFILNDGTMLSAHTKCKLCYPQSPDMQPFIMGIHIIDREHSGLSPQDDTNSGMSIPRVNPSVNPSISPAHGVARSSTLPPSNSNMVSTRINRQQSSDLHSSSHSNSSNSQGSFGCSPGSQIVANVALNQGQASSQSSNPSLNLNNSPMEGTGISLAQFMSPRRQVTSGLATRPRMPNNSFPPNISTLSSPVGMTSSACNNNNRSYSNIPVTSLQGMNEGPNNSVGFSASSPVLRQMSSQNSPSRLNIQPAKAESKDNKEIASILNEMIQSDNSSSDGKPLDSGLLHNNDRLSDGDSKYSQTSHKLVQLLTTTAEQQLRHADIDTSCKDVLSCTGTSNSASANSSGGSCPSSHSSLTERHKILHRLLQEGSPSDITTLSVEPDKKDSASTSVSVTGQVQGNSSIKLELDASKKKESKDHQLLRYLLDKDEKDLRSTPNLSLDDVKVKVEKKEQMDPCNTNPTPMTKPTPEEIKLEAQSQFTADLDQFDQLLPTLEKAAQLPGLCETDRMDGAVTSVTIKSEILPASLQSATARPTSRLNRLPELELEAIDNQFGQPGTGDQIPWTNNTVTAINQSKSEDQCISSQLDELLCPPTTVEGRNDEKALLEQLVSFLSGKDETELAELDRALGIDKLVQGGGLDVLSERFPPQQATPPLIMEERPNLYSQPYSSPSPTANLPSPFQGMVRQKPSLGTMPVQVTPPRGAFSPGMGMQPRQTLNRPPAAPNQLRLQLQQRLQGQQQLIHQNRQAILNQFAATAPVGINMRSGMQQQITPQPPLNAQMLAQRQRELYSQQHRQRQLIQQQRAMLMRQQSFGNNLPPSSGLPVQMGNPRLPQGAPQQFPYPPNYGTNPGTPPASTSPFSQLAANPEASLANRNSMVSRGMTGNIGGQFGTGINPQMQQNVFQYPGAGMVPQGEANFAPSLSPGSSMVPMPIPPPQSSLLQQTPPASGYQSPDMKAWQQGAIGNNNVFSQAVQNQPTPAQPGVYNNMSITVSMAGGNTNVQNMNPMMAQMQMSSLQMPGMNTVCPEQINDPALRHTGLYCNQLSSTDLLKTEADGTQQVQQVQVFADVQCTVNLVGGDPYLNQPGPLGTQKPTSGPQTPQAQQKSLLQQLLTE

[9] = molecular target: Peroxisome proliferator-activated receptor gamma/Nuclear receptor coactivator 3 (Homo sapiens, UniProt P37231); experiment: TR-FRET dose response biochemical High Throughput Screening assay for agonists of the steroid receptor coactivator 3 (SRC-3) recruitment by the peroxisome proliferator-activated receptor gamma (PPAR gamma): non-selective agonists. [Related pubchem assays: 1301 (Confirmation screen.), 1048 (Primary screen.)]; format: functional
[10] = molecular target: Peroxisome proliferator-activated receptor gamma/Nuclear receptor coactivator 2 (Homo sapiens, UniProt P37231); experiment: TR-FRET dose response biochemical High Throughput Screening assay for agonists of the steroid receptor coactivator 2 (SRC-2) recruitment by the peroxisome proliferator-activated receptor gamma (PPAR gamma): non-selective agonists. [Related pubchem assays: 1297, 1032 ]; format: functional
Peroxisome proliferator-activated receptor gamma/Nuclear receptor coactivator 2, sequence (P37231 whole entry): as the sequence (P37231 whole entry) above
Peroxisome proliferator-activated receptor gamma/Nuclear receptor coactivator 2, sequence (Q15596 whole entry, further chain): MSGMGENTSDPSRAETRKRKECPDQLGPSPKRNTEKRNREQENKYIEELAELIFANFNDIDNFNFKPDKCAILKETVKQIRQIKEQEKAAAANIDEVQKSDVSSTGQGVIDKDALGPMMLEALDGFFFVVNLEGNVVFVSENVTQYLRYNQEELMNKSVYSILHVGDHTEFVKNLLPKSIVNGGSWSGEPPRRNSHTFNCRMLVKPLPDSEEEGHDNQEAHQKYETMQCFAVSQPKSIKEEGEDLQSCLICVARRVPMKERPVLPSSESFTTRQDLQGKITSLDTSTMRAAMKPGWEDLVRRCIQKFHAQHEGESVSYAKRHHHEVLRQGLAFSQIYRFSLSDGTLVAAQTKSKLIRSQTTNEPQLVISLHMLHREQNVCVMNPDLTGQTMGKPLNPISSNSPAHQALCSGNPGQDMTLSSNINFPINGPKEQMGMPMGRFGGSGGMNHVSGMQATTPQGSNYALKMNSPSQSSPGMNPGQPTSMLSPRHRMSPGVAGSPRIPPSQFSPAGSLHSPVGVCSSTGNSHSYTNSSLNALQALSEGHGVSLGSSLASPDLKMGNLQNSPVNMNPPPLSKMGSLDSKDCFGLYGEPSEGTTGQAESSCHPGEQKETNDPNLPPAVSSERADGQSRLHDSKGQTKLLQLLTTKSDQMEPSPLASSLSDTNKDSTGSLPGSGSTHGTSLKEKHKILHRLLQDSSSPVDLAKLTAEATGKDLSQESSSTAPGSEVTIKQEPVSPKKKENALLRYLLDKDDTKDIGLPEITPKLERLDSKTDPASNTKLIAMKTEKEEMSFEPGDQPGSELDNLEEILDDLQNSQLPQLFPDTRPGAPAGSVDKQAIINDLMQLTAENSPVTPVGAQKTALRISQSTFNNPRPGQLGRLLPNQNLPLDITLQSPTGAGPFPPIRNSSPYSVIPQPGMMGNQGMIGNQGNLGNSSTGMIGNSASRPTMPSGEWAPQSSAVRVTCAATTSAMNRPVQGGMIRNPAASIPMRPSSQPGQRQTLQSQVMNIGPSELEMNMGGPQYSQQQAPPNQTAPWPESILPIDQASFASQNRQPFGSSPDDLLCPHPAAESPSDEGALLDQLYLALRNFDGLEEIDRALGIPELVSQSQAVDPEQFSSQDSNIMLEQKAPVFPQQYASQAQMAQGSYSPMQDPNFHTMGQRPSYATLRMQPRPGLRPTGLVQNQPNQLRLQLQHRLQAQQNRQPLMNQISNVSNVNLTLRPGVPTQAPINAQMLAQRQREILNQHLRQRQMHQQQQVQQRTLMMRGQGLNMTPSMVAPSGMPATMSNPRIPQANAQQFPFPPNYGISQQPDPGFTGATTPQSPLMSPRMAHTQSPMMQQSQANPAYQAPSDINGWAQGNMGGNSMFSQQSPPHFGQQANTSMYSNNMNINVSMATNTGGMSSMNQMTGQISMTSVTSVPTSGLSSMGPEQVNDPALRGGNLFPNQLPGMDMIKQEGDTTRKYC

[11] = growth suppression of PTEN-null colon cells, dose response, cell-based, HCT116 PTEN knockout (AID 1047); format: functional;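 also: HCT116 colon tumor cells with PTEN knocked out; cells exposed to compound for 60 hours before readout; potency for loss of cell viability measured by luminescence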
[12] = growth suppression of beta-catenin-knockout colon cells, dose response, cell-based, HCT116, human colon tumor (AID 1045); format: functional;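 also: HCT116 colon tumor cells with beta catenin knocked out; cells exposed to compound for 60 hours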
Genome polyprotein = Genome polyprotein (dengue virus type 2, UniProt P29990); experiment: Dengue-2 NS5 methyltransferase inhibitors, primary screen, biochemical, confirmation dose response (AID 588689); format: functional
[13] = molecular target: Disintegrin and metalloproteinase domain-containing protein 17 (Homo sapiens, UniProt P78536); experiment: exosite inhibitors of ADAM17, dose response, biochemical (AID 743260)
Disintegrin and metalloproteinase domain-containing protein 17, sequence (P78536 whole entry, the tested form may be a part): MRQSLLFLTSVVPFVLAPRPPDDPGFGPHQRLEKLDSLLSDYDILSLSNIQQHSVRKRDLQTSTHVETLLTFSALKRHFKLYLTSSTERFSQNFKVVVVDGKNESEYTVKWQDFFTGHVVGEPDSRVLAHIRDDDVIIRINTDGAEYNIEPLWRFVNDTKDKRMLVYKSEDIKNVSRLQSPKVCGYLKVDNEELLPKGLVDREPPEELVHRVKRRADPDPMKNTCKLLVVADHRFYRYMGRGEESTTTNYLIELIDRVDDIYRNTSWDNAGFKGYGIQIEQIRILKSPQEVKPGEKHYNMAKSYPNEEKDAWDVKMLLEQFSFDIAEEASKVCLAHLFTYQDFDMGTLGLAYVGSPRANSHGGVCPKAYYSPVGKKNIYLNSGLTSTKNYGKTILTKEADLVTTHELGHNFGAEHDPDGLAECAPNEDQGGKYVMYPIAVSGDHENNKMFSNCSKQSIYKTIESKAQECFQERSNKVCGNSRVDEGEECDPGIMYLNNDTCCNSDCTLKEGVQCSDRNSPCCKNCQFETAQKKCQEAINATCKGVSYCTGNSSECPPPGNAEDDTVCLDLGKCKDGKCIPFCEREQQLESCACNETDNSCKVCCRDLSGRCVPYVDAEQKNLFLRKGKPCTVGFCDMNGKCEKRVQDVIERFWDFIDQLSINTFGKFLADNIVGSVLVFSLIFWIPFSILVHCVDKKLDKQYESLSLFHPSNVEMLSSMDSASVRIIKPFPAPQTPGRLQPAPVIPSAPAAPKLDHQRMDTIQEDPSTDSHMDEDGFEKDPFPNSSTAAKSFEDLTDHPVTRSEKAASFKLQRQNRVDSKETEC

[14] = ADAM10 protease inhibitors, dose response, selectivity assay for ADAM17 exosite inhibitor project, biochemical, FRET peptide substrate, recombinant human ADAM10 (AID 743259);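 also: ADAM10 enzyme cleaving a FRET peptide substrate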
[15] = P. falciparum 3D7-ScDHODH growth inhibitors, dose response, SYBR Green, dry powder samples (AID 1159570); format: functional, cell-based;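 also: parasite growth measured after 72 hours of compound exposure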
[16] = P. falciparum Dd2 growth inhibitors, dose response, SYBR Green, cherry-picked samples (AID 1159567); format: functional, cell-based
[17] = P. falciparum Dd2 growth inhibitors, dose response, SYBR Green, dry powder samples (AID 1159566); format: functional, cell-based;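 also: potency for growth inhibition with lower SYBR green DNA signal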
[18] = P. falciparum ATP4 D1247Y mutant growth inhibitors, dose response, NITD609-resistant line, SYBR Green, dry powder (AID 1159571); format: functional, cell-based;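 also: parasites synchronized at ring stage by sorbitol before testing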
[19] = HEp-2 cell cytotoxicity, dose response, cytotoxicity control for RSV inhibitor project, HTS (AID 2410); format: functional; details: human respiratory syncytial virus
[20] = molecular target: FAD-linked sulfhydryl oxidase ALR (Homo sapiens, UniProt P55789); experiment: inhibitors of human ALR sulfhydryl oxidase, dose response, biochemical, H2O2 detection, luminescence, cherry-pick (AID 493248)
FAD-linked sulfhydryl oxidase ALR, sequence (P55789 whole entry): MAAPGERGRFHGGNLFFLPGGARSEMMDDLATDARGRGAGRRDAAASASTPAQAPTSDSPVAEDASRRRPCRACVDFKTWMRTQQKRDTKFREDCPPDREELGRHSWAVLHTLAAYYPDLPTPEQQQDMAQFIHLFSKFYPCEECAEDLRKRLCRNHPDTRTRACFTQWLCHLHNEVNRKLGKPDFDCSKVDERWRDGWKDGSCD

Nc1ccc(N=Nc2ccc(O)cc2)c(N)n1
IC50 [1]: 8.44 µM (active) | CC50 [2]: 25.8 µM (active)

CCc1c(C)c2ccc(O)c(CN(C)C)c2oc1=O
IC50 (Aminopeptidase N): 28.9 µM (active)

O=C(COC(=O)Cc1ccc(Cl)cc1)NCc1ccco1
CC50 [2]: > 40 µM (active)

Cc1cc(=O)c2c(O)c(O)ccc2o1
IC50 (Leucine aminopeptidase): 110 µM (active) | IC50 [3]: > 50 µM (not active) | IC50 [1]: 32.2 µM (active) | IC50 [4]: > 100 µM (active)

O=C(CCN1C(=O)/C(=C/c2ccccc2Cl)SC1=S)N1CCCC1
CC50 [5]: 8.2 µM (active) | CC50 [6]: 19.7 µM (active) | CC50 [7]: 11.4 µM (active) | IC50 (cells): 28.4 µM (active)

CC(Sc1nc(N2CCCCC2)c2c(c1C#N)CCCC2)C(=O)O (stereo not given)
EC50 [8]: 33.9 µM (inactive) | EC50 [9]: > 79.4 µM (not active) | EC50 [10]: 64.9 µM (not active)

Cc1cc(NC(=O)C2CCCCC2)n(-c2nc3ccccc3[nH]2)n1
EC50 [11]: 16.9 µM (active) | EC50 [12]: 13.6 µM (active) | CC50 [6]: > 40 µM (active) | CC50 [7]: > 20 µM (active) | IC50 (cells): 5.56 µM (active)

O=C(O)COc1ccccc1/C=N/Nc1ccc(S(=O)(=O)Nc2ccc(Cl)cc2)cc1[N+](=O)[O-]
IC50 (Aminopeptidase N): 38.9 µM (active) | IC50 (Genome polyprotein): 36.7 µM (active)

Cc1ccc(/N=C2\C(Cl)=C(O)OC2OC(=O)c2ccc(C)cc2)cc1 (stereo not given)
IC50 [13]: > 69.5 µM (inactive) | IC50 [14]: > 7.73 µM (active)

Cc1ccc(C(=O)OCc2cn3ccccc3n2)cc1
IC50 [4]: > 100 µM (active)

CCN(CC)S(=O)(=O)c1cc(NC(=O)Cc2ccc(S(=O)(=O)N3CCOCC3)s2)ccc1Cl
IC50 [13]: > 69.5 µM (inactive) | IC50 [14]: 11.4 µM (inactive)

O=C(Nc1ccccc1)N1CCCCN2[C@@H](CO)[C@H](c3ccc(C#Cc4cccnc4)cc3)[C@@H]2C1
AC50 [15]: 0.476 µM (active) | AC50 [16]: 0.633 µM (active) | AC50 [17]: 0.552 µM (active) | AC50 [18]: 0.573 µM (active)

COc1ccc(NC(=O)/C(C#N)=C/c2ccc(Sc3nncn3C)c([N+](=O)[O-])c2)cc1
CC50 [2]: > 40 µM (active) | IC50 [4]: > 100 µM (active)

Cc1cccc(COc2ccccc2C(=O)N(C)CC(=O)Nc2cccc(F)c2)c1
IC50 [13]: > 69.5 µM (inactive) | IC50 [14]: 25.5 µM (inactive)

O=C(NC1CCCCN(Cc2cccc(Cl)c2)C1=O)c1ccc(COc2ccccc2)cc1 (stereo not given)
IC50 [13]: > 69.5 µM (inactive) | IC50 [14]: 20.7 µM (inactive)

Cc1ccccc1-c1nc(S(=O)(=O)c2ccc(Br)cc2)c(NCc2cccnc2)o1
CC50 [19]: 21.9 µM (active) | IC50 [13]: > 69.5 µM (inactive) | IC50 [14]: > 69.5 µM (inactive)

COc1ccc(NC(=O)CSc2nnc(C)n2Cc2ccccc2)cc1
IC50 [4]: > 12.5 µM (active)

COc1ccc(Br)cc1-c1nc(CCl)cs1
EC50 [8]: 9.93 µM (active) | EC50 [9]: > 79.4 µM (not active) | EC50 [10]: 5.52 µM (active) | AC50 [20]: 14.1 µM (active)
